Experimental findings from patent US20200392138A1, “PESTICIDALLY ACTIVE MESOIONIC HETEROCYCLIC COMPOUNDS” (Syngenta Participations AG, priority 2017, published 2020) are described below.

What all share (assay type): in vivo
The test system of one test is Diabrotica balteata. The test can be described thus: Diabrotica balteata (corn root worm), maize sprouts sprayed, L2 larvae. Particulars: 96 h, application rate of 200 ppm, 4 days after infestation, read-out: effect in at least one of the two categories (mortality or growth inhibition). How it is done:
Diabrotica balteata (Corn Root Worm)
Maize sprouts placed onto an agar layer in 24-well microtiter plates were treated with aqueous test solutions prepared from 10′000 ppm DMSO stock solutions by spraying. After drying, the plates were infested with L2 larvae (6 to 10 per well). The samples were assessed for mortality and growth inhibition in comparison to untreated samples 4 days after infestation.
(§1) The following compounds gave an effect of at least 80% in at least one of the two categories (mortality or growth inhibition) at an application rate of 200 ppm: […]

For a further test, the system named is Spodoptera littoralis. The test can be described thus: Spodoptera littoralis (Egyptian cotton leaf worm), cotton leaf discs sprayed, L1 larvae. The following applies: foliar, 72 h, application rate of 200 ppm, 3 days after infestation, read-out: control (mortality, anti-feeding effect, growth inhibition). How it is done:
Spodoptera littoralis (Egyptian Cotton Leaf Worm)
Cotton leaf discs were placed onto agar in 24-well microtiter plates and sprayed with aqueous test solutions prepared from 10′000 ppm DMSO stock solutions. After drying the leaf discs were infested with five L1 larvae. The samples were assessed for mortality, anti-feeding effect, and growth inhibition in comparison to untreated samples 3 days after infestation. Control of Spodoptera littoralis by a test sample is given when at least one of the categories mortality, anti-feedant effect, and growth inhibition is higher than the untreated sample.

The next test deals with Euschistus heros. The test can be described thus: Euschistus heros (neotropical brown stink bug), soybean leaves sprayed, N2 nymphs. The following applies: 120 h, application rate of 200 ppm, 5 days after infestation, read-out: effect in at least one of the two categories (mortality or growth inhibition). How it is done:
Euschistus heros (Neotropical Brown Stink Bug)
Soybean leaves on agar in 24-well microtiter plates were sprayed with aqueous test solutions prepared from 10′000 ppm DMSO stock solutions. After drying the leaves were infested with N2 nymphs. The samples were assessed for mortality and growth inhibition in comparison to untreated samples 5 days after infestation.
as §1

In the next test the test system is Thrips tabaci. The test can be described thus: Thrips tabaci (onion thrips) feeding/contact activity, sunflower leaf discs. Particulars: foliar, 144 h, application rate of 200 ppm, mixed ages, 6 days after infestation. How it is done: Thrips tabaci (Onion Thrips) Feeding/Contact Activity
Sunflower leaf discs were placed on agar in 24-well microtiter plates and sprayed with aqueous test solutions prepared from 10′000 ppm DMSO stock solutions. After drying the leaf discs were infested with a thrips population of mixed ages. The samples were assessed for mortality 6 days after infestation.

A further test concerns Myzus persicae. The test can be described thus: Myzus persicae (green peach aphid): feeding/contact activity, sunflower leaf discs. Particulars: foliar, 144 h, application rate of 200 ppm, mixed ages, 6 days after infestation. How it is done:
Myzus persicae (Green Peach Aphid): Feeding/Contact Activity
Sunflower leaf discs were placed onto agar in a 24-well microtiter plate and sprayed with aqueous test solutions prepared from 10′000 ppm DMSO stock solutions. After drying, the leaf discs were infested with an aphid population of mixed ages. The samples were assessed for mortality 6 days after infestation.

For orientation: mortality means the share of the test organisms that died.

The structures appear in SMILES notation.

For `Cn1ccc2n1c(=O)c(-c1cc(Cl)cc(Cl)c1)c([O-])[n+]2Cc1cnc(Cl)s1` [Compound A1, 4-[(2-chlorothiazol-5-yl)methyl]-6-(3,5-dichlorophenyl)-1-methyl-7-oxo-pyrazolo[1,5-a]pyrimidin-4-ium-5-olate], in the test with Diabrotica balteata, the percent effect (mortality or growth inhibition) at 200 ppm is no less than 80%. For the same molecule, the mortality at 200 ppm in the test on Spodoptera littoralis was no less than 80%.
In the case of `Cn1ccc2n1c(=O)c(-c1cccc(C(F)(F)F)c1)c([O-])[n+]2CCC#N` [Compound B2, 4-(2-cyanoethyl)-1-methyl-7-oxo-6-[3-(trifluoromethyl)phenyl]pyrazolo[1,5-a]pyrimidin-4-ium-5-olate], the percent effect (mortality or growth inhibition) at 200 ppm in the test with Euschistus heros and in the test with Diabrotica balteata was no less than 80% throughout. Moreover, the mortality at 200 ppm in the test on Thrips tabaci is no less than 80%.
`Cn1ccc2n1c(=O)c(-c1cc(Cl)cc(Cl)c1)c([O-])[n+]2CCn1cncn1` [Compound B21]: the mortality at 200 ppm in the test with Myzus persicae was no less than 80%.
